Measured values from ChEMBL document CHEMBL2434929, “Thermoresponsive dendrimers based on oligoethylene glycols: design, synthesis and cytotoxic activity against MCF-7 breast cancer cells” (Eur J Med Chem, 2013).
≈ marks a conversion by molar mass, not a printed value.

What was measured:
MCF7 [1] = assay: Cytotoxicity against human MCF7 cells after 72 hrs by SRB-U assay; format: functional, cell-based; settings: MCF7, 72 h
MCF7 [2] = assay: Cytotoxicity against human MCF7 cells assessed as viable cells at 0.1 to 1000 ug/ml after 72 hrs by SRB-U assay; format: functional

| Compound | IC50 (MCF7 [1]) | Activity (MCF7 [2]) |
| --- | --- | --- |
| CCOCCOCCOCCOc1cc(COc2c(Br)c(Br)c(OCc3cc(OCCOCCOCCOCC)c(OCCOCCOCCOCC)c(OCCOCCOCCOCC)c3)c(Br)c2Br)cc(OCCOCCOCCOCC)c1OCCOCCOCCOCC | 1.07 µg/mL (≈ 0.643 µM) | 1.97% |
| CCOCCOCCOCCOc1c(Br)c(Br)c(OCCOCCOCCOCC)c(Br)c1Br | 13.8 µg/mL (≈ 18.5 µM) | 11.22% |
| CCOCCOCCOCCOc1cc(COCCOCCOCCOc2c(Br)c(Br)c(OCCOCCOCCOCc3cc(OCCOCCOCCOCC)c(OCCOCCOCCOCC)c(OCCOCCOCCOCC)c3)c(Br)c2Br)cc(OCCOCCOCCOCC)c1OCCOCCOCCOCC | 25.4 µg/mL (≈ 13.2 µM) | 5.1% |
